Test results as given in PubChem BioAssay AID200 (DTP/NCI, 2004).
“And” between values parts separate entries of the source, which are not always exact repeats. Equal entries are not always repeated. Toxic doses and inconclusive results are not listed.

System: B6C3F1 mice, B16 melanoma ip, median survival T/C
Assay: NCI In Vivo Anticancer Drug Screen. Data for tumor model B16 Melanoma (intraperitoneal) in B6C3F1 mice
Conditions: endpoint: median survival time, higher = longer survival
How it was run: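 Values are T/C ratios: the measurement in treated animals divided by that in vehicle-treated controls, using survival or tumor size in mice carrying transplantable tumors.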

[1] = dose: 12.5 mg/kg/injection, schedule: Q01DX009 (ip), vehicle: saline with Tween-80
[2] = dose: 25.0 mg/kg/injection, schedule: Q01DX009 (ip), vehicle: saline with Tween-80
[3] = dose: 50.0 mg/kg/injection, schedule: Q01DX009 (ip), vehicle: saline with Tween-80
[4] = dose: 100.0 mg/kg/injection, schedule: Q01DX009 (ip), vehicle: saline with Tween-80
[5] = dose: 1.56 mg/kg/injection, schedule: Q01DX009 (ip), vehicle: saline with Tween-80
[6] = dose: 6.25 mg/kg/injection, schedule: Q01DX009 (ip), vehicle: saline with Tween-80

For `N#CC(OC1OC(COC2OC(CO)C(O)C(O)C2O)C(O)C(O)C1O)c1ccccc1` (stereo not drawn), the T/C (dose: 25.0 mg/kg/injection, schedule: Q01DX009 (ip), vehicle: saline) was 101 % of control, the T/C (dose: 25.0 mg/kg/injection, schedule: Q01DX009 (ip), vehicle: water) was 100 % of control and the T/C (dose: 50.0 mg/kg/injection, schedule: Q01DX009 (ip), vehicle: saline) was 104 % of control. For the same molecule, the T/C (dose: 50.0 mg/kg/injection, schedule: Q01DX009 (ip), vehicle: water) was 102 % of control, the T/C (dose: 100.0 mg/kg/injection, schedule: Q01DX009 (ip), vehicle: saline) was 105 % of control and the T/C (dose: 100.0 mg/kg/injection, schedule: Q01DX009 (ip), vehicle: water) was 102 % of control. For the same molecule, the T/C (dose: 200.0 mg/kg/injection, schedule: Q01DX009 (ip), vehicle: saline) was 106 % of control, the T/C (dose: 200.0 mg/kg/injection, schedule: Q01DX009 (ip), vehicle: water) was 117 % of control and the T/C (dose: 400.0 mg/kg/injection, schedule: Q01DX009 (ip), vehicle: saline) was 101 % of control. For the same molecule, the T/C (dose: 400.0 mg/kg/injection, schedule: Q01DX009 (ip), vehicle: water) was 106 % of control, the T/C (dose: 800.0 mg/kg/injection, schedule: Q01DX009 (ip), vehicle: saline) was 100 % of control and the T/C (dose: 800.0 mg/kg/injection, schedule: Q01DX009 (ip), vehicle: water) was 106 % of control.

For `COC1/C=C/O[C@@]2(C)Oc3c(C)c(O)c4c(O)c(cc(O)c4c3C2=O)NC(=O)/C(C)=C\C=C\[C@H](C)C(O)[C@@H](C)[C@@H](O)[C@@H](C)[C@H](OC(C)=O)[C@@H]1C` (stereo partly drawn), the T/C [1] was 95 % of control, the T/C [2] was 97 % of control and the T/C [3] was 93 % of control. The T/C [4] was 95 % of control.

With `C=C1C(C)C2C(Cc3ccccc3)NC(=O)C23C(OC(C)=O)/C=C/C(C)(O)CC(C)C/C=C/C3C1O` (stereo not drawn) the T/C (dose: 0.37 mg/kg/injection, schedule: Q01DX009 (ip), vehicle: Klucel (hydroxypropylcellulose) (HPC)) was 112 % of control and 99 % of control, the T/C (dose: 0.75 mg/kg/injection, schedule: Q01DX009 (ip), vehicle: Klucel (hydroxypropylcellulose) (HPC)) was 110 % of control and 100 % of control and 101 % of control and the T/C (dose: 1.5 mg/kg/injection, schedule: Q01DX009 (ip), vehicle: Klucel (hydroxypropylcellulose) (HPC)) was 115 % of control and 98 % of control and 103 % of control. For the same molecule, the T/C [5] was 124 % of control, the T/C (dose: 3.0 mg/kg/injection, schedule: Q01DX009 (ip), vehicle: Klucel (hydroxypropylcellulose) (HPC)) was 112 % of control and 115 % of control and 105 % of control and the T/C (dose: 3.13 mg/kg/injection, schedule: Q01DX009 (ip), vehicle: saline with Tween-80) was 111 % of control. For the same molecule, the T/C (dose: 6.0 mg/kg/injection, schedule: Q01DX009 (ip), vehicle: Klucel (hydroxypropylcellulose) (HPC)) was 103 % of control, the T/C [6] was 113 % of control and the T/C (dose: 12.0 mg/kg/injection, schedule: Q01DX009 (ip), vehicle: Klucel (hydroxypropylcellulose) (HPC)) was 103 % of control.

With `C[n+]1c(/C=N/NC(N)=S)ccc2ccccc21` the T/C [6] was 92 % of control, the T/C [1] was 87 % of control and the T/C [2] was 92 % of control. The T/C [3] was 94 % of control and the T/C [4] was 92 % of control.

With `C[n+]1cccc(NC(=O)c2ccc(NC(=O)C34CCC(C(=O)Nc5ccc(C(=O)Nc6ccc[n+](C)c6)cc5)(CC3)CC4)cc2)c1` the T/C (dose: 2.5 mg/kg/injection, schedule: Q01DX009 (ip), vehicle: saline with Tween-80) was 114 % of control, the T/C (dose: 5.0 mg/kg/injection, schedule: Q01DX009 (ip), vehicle: saline with Tween-80) was 111 % of control and 117 % of control and 118 % of control and the T/C (dose: 10.0 mg/kg/injection, schedule: Q01DX009 (ip), vehicle: saline with Tween-80) was 119 % of control. The T/C (dose: 20.0 mg/kg/injection, schedule: Q01DX009 (ip), vehicle: saline with Tween-80) was 121 % of control and 99 % of control.

For `C1CC[N-]CC1.[Cl][Pt+2][Cl].[NH-]C1CC1`, the T/C [5] was 117 % of control, the T/C (dose: 3.12 mg/kg/injection, schedule: Q01DX009 (ip), vehicle: water) was 106 % of control and the T/C (dose: 6.25 mg/kg/injection, schedule: Q01DX009 (ip), vehicle: water) was 116 % of control. The T/C [1] was 159 % of control.

In the case of `CN(C)C(=O)SC1=C(c2c(Cl)cccc2Cl)C(=O)c2ccccc21`, the T/C (dose: 25.0 mg/kg/injection, schedule: Q01DX009 (ip), vehicle: Klucel (hydroxypropylcellulose) (HPC)) is reported as 98 % of control, the T/C (dose: 50.0 mg/kg/injection, schedule: Q01DX009 (ip), vehicle: Klucel (hydroxypropylcellulose) (HPC)) is reported as 96 % of control and the T/C (dose: 100.0 mg/kg/injection, schedule: Q01DX009 (ip), vehicle: Klucel (hydroxypropylcellulose) (HPC)) is reported as 101 % of control. For the same molecule, the T/C (dose: 200.0 mg/kg/injection, schedule: Q01DX009 (ip), vehicle: Klucel (hydroxypropylcellulose) (HPC)) was 101 % of control.

`O=C1NC(=O)C2(CCc3ccc(N(CCCl)CCCl)cc32)N1` (stereo not drawn) was tested, and the T/C (dose: 1.5 mg/kg/injection, schedule: Q01DX009 (ip), vehicle: saline with Tween-80) was 122 % of control, the T/C (dose: 6.25 mg/kg/injection, schedule: Q01DX009 (oral), vehicle: saline with Tween-80) was 100 % of control and the T/C (dose: 12.0 mg/kg/injection, schedule: Q01DX009 (ip), vehicle: saline with Tween-80) was 157 % of control. The T/C (dose: 12.5 mg/kg/injection, schedule: Q01DX009 (oral), vehicle: saline with Tween-80) was 115 % of control and 108 % of control, the T/C (dose: 24.0 mg/kg/injection, schedule: Q01DX009 (ip), vehicle: saline with Tween-80) was 202 % of control and the T/C (dose: 25.0 mg/kg/injection, schedule: Q01DX009 (oral), vehicle: saline with Tween-80) was 109 % of control and 105 % of control. The T/C (dose: 48.0 mg/kg/injection, schedule: Q01DX009 (ip), vehicle: saline with Tween-80) was 236 % of control, the T/C (dose: 50.0 mg/kg/injection, schedule: Q01DX009 (oral), vehicle: saline with Tween-80) was 121 % of control and 104 % of control and the T/C (dose: 100.0 mg/kg/injection, schedule: Q01DX009 (oral), vehicle: saline with Tween-80) was 109 % of control and 117 % of control. For the same molecule, the T/C (dose: 200.0 mg/kg/injection, schedule: Q01DX009 (oral), vehicle: saline with Tween-80) was 117 % of control and 101 % of control and the T/C (dose: 400.0 mg/kg/injection, schedule: Q01DX009 (oral), vehicle: saline with Tween-80) was 109 % of control.
